# Reference: ChEMBL document CHEMBL1949616, “Synthesis and human telomeric G-quadruplex DNA-binding activity of glucosaminosides of shikonin/alkannin” (Bioorg Med Chem Lett, 2012)
# The source made the active and inactive calls. The calls are words filed in the database; no cut-off is given here.
# Experiments:
# Type in all cases: nucleic-acid assay
# Nucleic Acid [1] = test: Binding affinity to human telomeric G-quadruplex DNA at 200 uM after 1 hr by ESI-TOF-MS analysis
# Nucleic Acid [2] = test: Binding affinity to human telomeric G-quadruplex DNA assessed as bathochromic shift at 10 uM at pH 7.6 by UV-Vis spectrophotometric analysis
# Nucleic Acid [3] = test: Binding affinity to human telomeric DNA AGGGTTAGGGT at 200 uM after 1 hr by ESI-TOF-MS analysis
# Nucleic Acid [4] = test: Binding affinity to human telomeric G-quadruplex DNA assessed as hypochromic effect at 10 uM at pH 7.6 by UV-Vis spectrophotometric analysis
Activity (Nucleic Acid [1]) [%],Activity (Nucleic Acid [2]),Activity (Nucleic Acid [3]) [%],Activity (Nucleic Acid [4]) [%],Structure (SMILES)
0,–,–,–,CC(C)=CC[C@@H](O)C1=CC(=O)c2c(O)ccc(O)c2C1=O
47,Active,16,32.8,CC(=O)N[C@H]1[C@H](O[C@H](CC=C(C)C)C2=CC(=O)c3c(O)ccc(O)c3C2=O)O[C@H](CO)[C@@H](O)[C@@H]1O
0,–,–,–,CC(C)=CC[C@H](O)C1=CC(=O)c2c(O)ccc(O)c2C1=O

# Further lines, the molecule ahead of its results:
Structure (SMILES),Activity (Nucleic Acid [1]) [%],Activity (Nucleic Acid [2]),Activity (Nucleic Acid [3]) [%],Activity (Nucleic Acid [4]) [%]
COc1ccc2cc3[n+](cc2c1OC)CCc1cc2c(cc1-3)OCO2,58.9,–,–,–
CC(=O)N[C@H]1[C@H](O[C@@H](CC=C(C)C)C2=CC(=O)c3c(O)ccc(O)c3C2=O)O[C@H](CO)[C@@H](O)[C@@H]1O,39.3,–,–,–
